Experiments:
[1] = system: VEGF RTK; conditions: cited from earlier work
[2] = system: LNCaP tumour xenografts; assay: LNCaP Human Prostate Cancer Xenograft Model; assay type: in vivo, Swiss nude mice; conditions: for tumour volume versus orchiectomy and control groups: P<0.001 versus each group
Protocol: Six to eight-week-old Swiss nude mice were given one injection in the anterior flank with 5×10^6 tumour cells suspended in 0.1 ml of serum-free medium with the addition of 100 μl of Matrigel. Once tumours were established, mice were randomized into control and treatment groups.
Mice were examined twice a week, and tumours were measured with calipers across the greatest two diameters. At the time of euthanasia, tumours were removed by dissection away from adjacent organs and structures and weighed on an analytical balance. For histologic analysis, tissue samples were fixed in 10% neutral buffered formalin and processed through graded ethanols and xylenes for paraffin embedding and staining using standard methods. For calculation of percent necrosis, 5 random fields per tumour were examined at low power (10×) from tumours harvested at 40 days. The necrotic area(s) in each field was/were circumscribed electronically using the tools available in the ImagePro computerized image analysis package (Media Cybernetics) to create an area. A human operator carried out this identification and circling of the necrotic area for all analyzed issues. Using the total area of the section as the denominator, the percentage of necrosis was evaluated for each field. To obtain an average for a whole experimental tumour group, the percent necrosis for each field was averaged across the total number of tumours in the group.
Repeated measure models were used for the analysis of the in vivo tumour volumes. Several covariance structures, including AR- 1 and random coefficient models, were used and all yielded similar conclusions. The analyses reported herein are based on a random coefficient model with robust estimates of the covariance matrix. Specific comparisons between treatment groups were made using F-test based on contrasts. Statistical analyses were carried out in SAS PROC MIXED; the plots were prepared in GAUSS 5.0. Error bars represent one standard error from the mean. Time from treatment initiation to the time that tumour volumes exceeded a cut-off value (a tumour volume of >300 mm^3) were estimated with Kaplan-Meier curves and compared across treatment groups with the log-rank test. Tumour volume cut-offs were used to avoid using a survival endpoint, which would have involved significant animal distress and to employ a threshold that was appropriate for comparing the tumour growth data across all groups.

SMILES: COc1cc2c(Nc3ccc(Br)cc3F)ncnc2cc1OCC1CCN(C)CC1 [ZD6474, 4-(4-bromo-2-fluoroanilino)-6-methoxy-7-(1-methylpiperidin-4-ylmethoxy)quinazoline]
- inhibition of VEGF RTK [1]: potent inhibitor
- delay before tumour growth resumed after compound withdrawal ([2]; ZD6474 alone 50 mg/kg/day for 40 days, then withdrawn, normal mice): approximately 15 days
- tumour volume versus orchiectomy and control groups ([2]; ZD6474 alone 50 mg/kg/day, after 38 days of treatment): significant differences in tumour volume
- tumour volume versus orchiectomy group ([2]; ZD6474 alone 50 mg/kg/day, days 13 to 38 post-treatment, P<0.05): Statistically significant differences
- percentage of necrosis ([2]; ZD6474 alone, 50 mg/kg/day once daily p.o., normal mice, tumours harvested at day 40, 5 tumours, vehicle control 31±7%): 48±5%
- percentage of necrosis ([2]; combination of orchiectomy and ZD6474 50 mg/kg/day, tumours harvested at day 40, versus 51±5% in monotherapy, P=0.01): 73±6%
- tumour volume versus orchiectomy and control groups ([2]; combination therapy group (ZD6474 50 mg/kg/day plus orchiectomy), after 38 days): significant differences were observed
- rate of tumour growth after ZD6474 withdrawal versus untreated tumours ([2]; previously ZD6474 treated tumours, delay of approximately 15 days taken into account): no significant difference
